Data published in the NIST ThermoML archive (doi:10.1021/acs.jced.6b00460).

Assay: xn = mol fraction of the nth substance listed
Settings: 101 kPa, Liquid; for speed of sound: Sing-around technique in a fixed-path interferometer; for mass density: Vibrating tube method

CCCCCC[n+]1ccc(C)cc1.[Br-] [1-hexyl-4-methylpyridinium bromide] + O
Settings | mass density, 308.15 K [kg/m3] | mass density, 318.15 K [kg/m3] | speed of sound, 308.15 K [m/s] | speed of sound, 318.15 K [m/s]
x2 = 0.0528 | 1214.12 | 1207.39 | 1586.8 | 1557.9
x2 = 0.1126 | 1213.44 | 1206.62 | 1583.6 | 1557
x2 = 0.2082 | 1211.69 | 1204.8 | 1579.1 | 1555.2
x2 = 0.2609 | 1210.34 | 1203.43 | 1575.7 | 1554.2
x2 = 0.3062 | 1208.9 | 1202.01 | 1573.2 | 1553.2
x2 = 0.4101 | 1204.56 | 1197.72 | 1568.4 | 1551.7
x2 = 0.4609 | 1201.71 | 1194.91 | 1565.3 | 1550.7
x2 = 0.5077 | 1198.65 | 1191.88 | 1563 | 1549.8
x2 = 0.6089 | 1189.79 | 1183.07 | 1557.2 | 1547.7
x2 = 0.6539 | 1184.57 | 1177.87 | 1553.3 | 1546
x2 = 0.7029 | 1177.58 | 1170.89 | 1547.7 | 1544.7
x2 = 0.7484 | 1169.44 | 1162.78 | 1542.9 | 1543.5
x2 = 0.8066 | 1155.56 | 1148.97 | 1537.6 | 1542
x2 = 0.8545 | 1139.33 | 1132.88 | 1533.7 | 1540.5
x2 = 0.9066 | 1112.82 | 1106.74 | 1529.4 | 1539.1
x2 = 0.9502 | 1076.22 | 1070.75 | 1524.9 | 1537.8

CCCCCC[n+]1ccccc1.[Br-] [1-hexylpyridinium bromide] + O
Settings | mass density, 308.15 K [kg/m3] | mass density, 318.15 K [kg/m3] | speed of sound, 308.15 K [m/s] | speed of sound, 318.15 K [m/s]
x2 = 0.0609 | 1235 | 1228.39 | 1589.8 | 1556.2
x2 = 0.1184 | 1234.11 | 1227.43 | 1587.3 | 1555.1
x2 = 0.2091 | 1232.19 | 1225.43 | 1583.4 | 1553.2
x2 = 0.2544 | 1230.93 | 1224.15 | 1580.7 | 1552.2
x2 = 0.3097 | 1229.05 | 1222.25 | 1578.7 | 1551.4
x2 = 0.414 | 1224.2 | 1217.39 | 1574.6 | 1550
x2 = 0.4533 | 1221.81 | 1215.01 | 1572.9 | 1549.3
x2 = 0.5028 | 1218.26 | 1211.46 | 1571.8 | 1548.7
x2 = 0.5928 | 1209.73 | 1202.97 | 1570.1 | 1547.5
x2 = 0.6486 | 1202.64 | 1195.91 | 1565.9 | 1547.1
x2 = 0.7138 | 1191.79 | 1185.1 | 1561.6 | 1546.5
x2 = 0.7554 | 1182.79 | 1176.19 | 1557.1 | 1545.7
x2 = 0.7995 | 1170.69 | 1164.19 | 1551.1 | 1545
x2 = 0.8534 | 1150.45 | 1144.16 | 1543.3 | 1543.3
x2 = 0.9011 | 1124.03 | 1118.08 | 1535.9 | 1541.3
x2 = 0.9511 | 1079.2 | 1073.95 | 1528.1 | 1539.1

CCCCCC[n+]1ccccc1.[Cl-] [1-hexylpyridinium chloride] + O
Settings | mass density, 308.15 K [kg/m3] | mass density, 318.15 K [kg/m3] | speed of sound, 308.15 K [m/s] | speed of sound, 318.15 K [m/s]
x2 = 0.0598 | 1146.46 | 1142.37 | 1569.2 | 1548.7
x2 = 0.1085 | 1146.26 | 1142.04 | 1567.4 | 1548.1
x2 = 0.2068 | 1145.6 | 1141.23 | 1564.8 | 1547.2
x2 = 0.2492 | 1145.16 | 1140.76 | 1563.9 | 1546.6
x2 = 0.3024 | 1144.44 | 1140.03 | 1562.9 | 1546
x2 = 0.4166 | 1142.05 | 1137.61 | 1560.3 | 1544.8
x2 = 0.4568 | 1140.82 | 1136.36 | 1559.6 | 1544.1
x2 = 0.5065 | 1138.92 | 1134.43 | 1557.6 | 1543.4
x2 = 0.6137 | 1132.92 | 1128.25 | 1553.2 | 1542
x2 = 0.6533 | 1129.75 | 1124.99 | 1550.8 | 1541.4
x2 = 0.709 | 1124.03 | 1119.08 | 1547.4 | 1540.6
x2 = 0.7521 | 1118.2 | 1113.12 | 1542.8 | 1540
x2 = 0.7936 | 1110.94 | 1105.73 | 1539.5 | 1539.4
x2 = 0.8561 | 1095.34 | 1090.02 | 1534 | 1538.6
x2 = 0.8966 | 1080.31 | 1074.99 | 1529.9 | 1538.2
x2 = 0.9528 | 1046.95 | 1042 | 1524.5 | 1537.2

CCCCCCCC[n+]1ccccc1.[Br-] [1-octylpyridinium bromide] + O
Settings | mass density, 308.15 K [kg/m3] | mass density, 318.15 K [kg/m3] | speed of sound, 308.15 K [m/s] | speed of sound, 318.15 K [m/s]
x2 = 0.0524 | 1167.92 | 1161.5 | 1507.5 | 1479.5
x2 = 0.1125 | 1167.75 | 1161.26 | 1508.2 | 1481.4
x2 = 0.2085 | 1167.44 | 1160.87 | 1509.1 | 1483.4
x2 = 0.2612 | 1167.11 | 1160.51 | 1509.6 | 1485
x2 = 0.3065 | 1166.66 | 1160.04 | 1510.1 | 1486.3
x2 = 0.4098 | 1164.79 | 1158.11 | 1511.2 | 1489.1
x2 = 0.4611 | 1163.24 | 1156.52 | 1511.8 | 1490.4
x2 = 0.5075 | 1161.35 | 1154.59 | 1512.2 | 1492
x2 = 0.6091 | 1155.07 | 1148.2 | 1513.8 | 1494.8
x2 = 0.6541 | 1151.03 | 1144.1 | 1514.5 | 1497.2
x2 = 0.7031 | 1145.4 | 1138.43 | 1515.1 | 1502.2
x2 = 0.7485 | 1138.7 | 1131.69 | 1516 | 1506.7
x2 = 0.8065 | 1127.15 | 1120.15 | 1516.8 | 1512.5
x2 = 0.8545 | 1113.64 | 1106.77 | 1517.5 | 1518
x2 = 0.9065 | 1091.9 | 1085.37 | 1518.2 | 1523.5
x2 = 0.9503 | 1062.05 | 1056.24 | 1518.8 | 1529.3

CCCCCCCC[n+]1ccc(C)cc1.[Cl-] [4-methyl-1-octylpyridinium chloride] + O
Settings | mass density, 308.15 K [kg/m3] | mass density, 318.15 K [kg/m3] | speed of sound, 308.15 K [m/s] | speed of sound, 318.15 K [m/s]
x2 = 0.0612 | 1107.62 | 1101.69 | 1448.6 | 1417.4
x2 = 0.1098 | 1107.56 | 1101.55 | 1452 | 1421.5
x2 = 0.2054 | 1107.52 | 1101.39 | 1457.5 | 1430.4
x2 = 0.2476 | 1107.46 | 1101.31 | 1459.9 | 1435.3
x2 = 0.3088 | 1107.3 | 1101.1 | 1463.2 | 1439.9
x2 = 0.4187 | 1106.44 | 1100.18 | 1468.7 | 1451.7
x2 = 0.4521 | 1105.97 | 1099.68 | 1472.2 | 1454.6
x2 = 0.5065 | 1104.89 | 1098.57 | 1475.1 | 1461.8
x2 = 0.6021 | 1101.75 | 1095.32 | 1483.4 | 1475
x2 = 0.6532 | 1099.16 | 1092.65 | 1487.9 | 1482.3
x2 = 0.7042 | 1095.66 | 1089.07 | 1492.5 | 1490.3
x2 = 0.7565 | 1090.74 | 1084.09 | 1497.2 | 1498.6
x2 = 0.8029 | 1084.75 | 1078.06 | 1501.7 | 1506.7
x2 = 0.8577 | 1074.57 | 1067.97 | 1505.2 | 1513.6
x2 = 0.9035 | 1061.61 | 1055.25 | 1510.4 | 1521.1
x2 = 0.9511 | 1039.58 | 1033.92 | 1514.3 | 1528.4
